Values of other authors in US11648199B2 (AI Therapeutics, Inc, priority 2014, dated 2023).

Legend:
[1] = cancer patients administered temsirolimus or everolimus; cited from earlier work
[2] = clinical use; cited from earlier work

| Compound | patients who may experience mild grade pulmonary toxicity [1] | lung toxicity [2] |
| --- | --- | --- |
| CO[C@H]1C[C@@H]2CC[C@@H](C)[C@@](O)(O2)C(=O)C(=O)N2CCCC[C@H]2C(=O)O[C@H]([C@H](C)C[C@@H]2CC[C@@H](OCCO)[C@H](OC)C2)CC(=O)[C@H](C)/C=C(\C)[C@@H](O)[C@@H](OC)C(=O)[C@H](C)C[C@H](C)/C=C/C=C/C=C/1C [everolimus] | 10% |  |
| C=CC[C@@H]1/C=C(\C)C[C@H](C)C[C@H](OC)[C@H]2O[C@@](O)(C(=O)C(=O)N3CCCC[C@H]3C(=O)O[C@H](/C(C)=C/[C@@H]3CC[C@@H](O)[C@H](OC)C3)[C@H](C)[C@@H](O)CC1=O)[C@H](C)C[C@@H]2OC [tacrolimus] |  | did not show lung toxicity |
| CO[C@H]1C[C@@H]2CC[C@@H](C)[C@@](O)(O2)C(=O)C(=O)N2CCCC[C@H]2C(=O)O[C@H]([C@H](C)C[C@@H]2CC[C@@H](OC(=O)C(C)(CO)CO)[C@H](OC)C2)CC(=O)[C@H](C)/C=C(\C)[C@@H](O)[C@@H](OC)C(=O)[C@H](C)C[C@H](C)/C=C/C=C/C=C/1C [temsirolimus] | 10% |  |
